# In USRE39591E1, “6-O-substituted ketolides having antibacterial activity” (Abbott Laboratories, priority 1996, dated 2007):
# System: up to 32 different microorganisms
# Test: in vitro antibacterial activity (MIC), agar dilution on Brain Heart Infusion (BHI) agar with Steers replicator
# Type: cell-based
# Details: unit assumed
# Description: Representative compounds of the present invention were assayed in vitro for antibacterial activity as follows: Twelve petri dishes containing successive aqueous dilutions of the test compound mixed with 10 mL of sterilized Brain Heart Infusion (BHI) agar (Difco 0148-01-5) were prepared. Each plate was inoculated with 1:100 (or 1:10 for slow-growing strains, such as Micrococcus and Streptococcus) dilutions of up to 32 different microorganisms, using a Steers replicator block. The inoculated plates were incubated at 35°-37° C. for 20 to 24 hours. In addition, a control plate, using BHI agar containing no test compound, was prepared and incubated at the beginning and end of each test.
# An additional plate containing a compound having known susceptibility patterns for the organisms being tested and belonging to the same antibiotic class as the test compound was also prepared and incubated as a further control, as well as to provide test-to-test comparability. Erythromycin A was used for this purpose.
# After incubation, each plate was visually inspected. The minimum inhibitory concentration (MIC) was defined as the lowest concentration of drug yielding no growth, a slight haze, or sparsely isolated colonies on the inoculum spot as compared to the growth control.
# [1] = Candida albicans CCH 442 (code TT)
# [2] = Enterococcus faecism ATCC 8043 (code II)
# [3] = Escherichia coli DC-2 (code SS)
# [4] = Escherichia coli JUHL (code QQ)
# [5] = Micrococcus luteus ATCC 4698 (code PP)
# [6] = Micrococcus luteus ATCC 9341 (code OO)
# [7] = Mycobacterium smegmatis ATCC 114 (code UU)
# [8] = Nocardia Asteroides ATCC9970 (code VV)
# [9] = Staphylococcus aureus 1775 (code GG)
# [10] = Staphylococcus aureus A5177 (code BB)
# [11] = Staphylococcus aureus A-5278 (code CC)
# [12] = Staphylococcus aureus ATCC 6538P (code AA)
# [13] = Staphylococcus aureus CMX 553 (code FF)
# [14] = Staphylococcus aureus CMX 642A (code DD)
# [15] = Staphylococcus aureus NCTC10649M (code EE)
# [16] = Staphylococcus epidermidis 3519 (code HH)
# [17] = Streptococcus agalactiae CMX 508 (code KK)
# [18] = Streptococcus bovis A-5169 (code JJ)
# [19] = Streptococcus pyogenes 930 (code MM)
# [20] = Streptococcus pyogenes EES61 (code LL)
# [21] = Streptococcus pyogenes PIU 2548 (code NN)
smiles,measurement,setting,value
"CC[C@H]1OC(=O)[C@H](C)C(=O)[C@H](C)[C@@H](O[C@@H]2O[C@H](C)C[C@H](N(C)C)[C@H]2O)[C@@](C)(OCC=NOCc2cccc3ccccc23)C[C@@H](C)C(=O)[C@H](C)[C@H]2NC(=O)O[C@@]21C [Example 235, Compound of Formula (IX): L is CO, T is NH, R is —CH2CH═NOCH2(1-naphthyl)]",MIC,organism code AA,0.2 µg/mL
same,MIC,organism code BB,0.2 µg/mL
same,MIC,organism code CC,> 100 µg/mL
same,MIC,organism code DD,0.2 µg/mL
same,MIC,organism code EE,0.2 µg/mL
same,MIC,organism code FF,0.2 µg/mL
same,MIC,organism code GG,> 100 µg/mL
same,MIC,organism code HH,0.2 µg/mL
same,MIC,organism code II,0.05 µg/mL
same,MIC,organism code JJ,0.01 µg/mL
same,MIC,organism code KK,0.01 µg/mL
same,MIC,organism code LL,0.01 µg/mL
same,MIC,organism code MM,25 µg/mL
same,MIC,organism code NN,0.2 µg/mL
same,MIC,organism code OO,0.05 µg/mL
same,MIC,organism code PP,0.39 µg/mL
same,MIC,organism code QQ,> 100 µg/mL
same,MIC,organism code RR,0.78 µg/mL
same,MIC,organism code SS,> 100 µg/mL
same,MIC,organism code TT,> 100 µg/mL
same,MIC,organism code UU,0.78 µg/mL
same,MIC,organism code VV,3.1 µg/mL
same,MIC,organism code WW,4 µg/mL
same,MIC,organism code XX,0.03 µg/mL
same,MIC,organism code YY,0.03 µg/mL
same,MIC,organism code ZZ,32 µg/mL
same,MIC,organism code ZZA,0.5 µg/mL
"CC[C@H]1OC(=O)[C@H](C)C(=O)[C@H](C)[C@@H](O[C@@H]2O[C@H](C)C[C@H](N(C)C)[C@H]2O)[C@@](C)(OCC=O)C[C@@H](C)C(=O)[C@H](C)[C@H]2NC(=O)O[C@@]21C [Example 220, Compound of Formula (IX): L is CO, T is NH, R is —CH2C(O)H]",MIC,organism code AA,0.2 µg/mL
same,MIC,organism code BB,0.39 µg/mL
same,MIC,organism code CC,> 100 µg/mL
same,MIC,organism code DD,0.2 µg/mL
same,MIC,organism code EE,0.2 µg/mL
same,MIC,organism code FF,0.2 µg/mL
same,MIC,organism code GG,> 100 µg/mL
same,MIC,organism code HH,0.2 µg/mL
same,MIC,organism code II,0.05 µg/mL
same,MIC,organism code JJ,≤ 0.005 µg/mL
same,MIC,organism code KK,0.02 µg/mL
same,MIC,organism code LL,0.01 µg/mL
same,MIC,organism code MM,> 100 µg/mL
same,MIC,organism code NN,0.39 µg/mL
same,MIC,organism code OO,0.02 µg/mL
same,MIC,organism code PP,0.2 µg/mL
same,MIC,organism code QQ,12.5 µg/mL
same,MIC,organism code RR,0.1 µg/mL
same,MIC,organism code SS,12.5 µg/mL
same,MIC,organism code TT,> 100 µg/mL
same,MIC,organism code UU,3.1 µg/mL
same,MIC,organism code VV,0.2 µg/mL
same,MIC,organism code WW,2 µg/mL
same,MIC,organism code XX,0.03 µg/mL
same,MIC,organism code YY,0.06 µg/mL
same,MIC,organism code ZZ,> 128 µg/mL
same,MIC,organism code ZZA,2 µg/mL
"CCC1OC(=O)C(C)C(=O)C(C)C(OC2OC(C)CC(N(C)C)C2O)C(C)(OCC=Cc2ccc3nc(C)ccc3c2)CC(C)C(=O)C(C)C2NC(=O)OC12C (stereo not shown) [Example 197, R is —CH2CH═CH-(2-methyl-6-quinolyl)]",MIC,[1],> 100 µg/mL
same,MIC,[2],0.05 µg/mL
same,MIC,[3],100 µg/mL
same,MIC,[4],100 µg/mL
same,MIC,Escherichia coli SS (code RR),0.2 µg/mL
same,MIC,[5],0.2 µg/mL
same,MIC,[6],0.02 µg/mL
same,MIC,[7],1.56 µg/mL
same,MIC,[8],0.1 µg/mL
same,MIC,[9],> 100 µg/mL
same,MIC,[10],0.1 µg/mL
same,MIC,[11],> 100 µg/mL
same,MIC,[12],0.1 µg/mL
same,MIC,[13],0.2 µg/mL
same,MIC,[14],0.1 µg/mL
same,MIC,[15],0.2 µg/mL
same,MIC,[16],0.1 µg/mL
same,MIC,[17],≤ 0.005 µg/mL
same,MIC,[18],≤ 0.005 µg/mL
same,MIC,[19],100 µg/mL
same,MIC,[20],≤ 0.005 µg/mL
same,MIC,[21],0.1 µg/mL
"CC[C@H]1OC(=O)[C@H](C)C(=O)[C@H](C)[C@@H](O[C@@H]2O[C@H](C)C[C@H](N(C)C)[C@H]2O)[C@@](C)(OCC=Cc2ccc(Cl)cc2)C[C@@H](C)C(=O)[C@H](C)[C@@H](O)[C@]1(C)O [Example 17, Compound of Formula (VIII): X is O, R is —CH2CH═CH-(4-chlorophenyl)]",MIC,[1],50 µg/mL
same,MIC,[2],1.56 µg/mL
same,MIC,[3],> 100 µg/mL
same,MIC,[4],> 100 µg/mL
same,MIC,Escherichia coli SS (code RR),12.5 µg/mL
same,MIC,Haemophilis influenzae DILL AMP R (code WW),64 µg/mL
same,MIC,[5],0.78 µg/mL
same,MIC,[6],0.39 µg/mL
same,MIC,[7],3.1 µg/mL
same,MIC,[8],3.1 µg/mL
same,MIC,[9],50 µg/mL
same,MIC,[10],1.56 µg/mL
same,MIC,[11],50 µg/mL
same,MIC,[12],1.56 µg/mL
same,MIC,[13],1.56 µg/mL
same,MIC,[14],1.56 µg/mL
same,MIC,[15],1.56 µg/mL
same,MIC,[16],1.56 µg/mL
same,MIC,Streptococcus Pneumonia 5649 (code ZZA),2 µg/mL
same,MIC,Streptococcus Pneumonia 5979 (code ZZ),32 µg/mL
same,MIC,Streptococcus Pneumonia ATCC6303 (code XX),1 µg/mL
same,MIC,Streptococcus Pneumonia GYR 1171 (code YY),0.5 µg/mL
same,MIC,[17],0.78 µg/mL
same,MIC,[18],0.39 µg/mL
same,MIC,[19],25 µg/mL
same,MIC,[20],0.78 µg/mL
same,MIC,[21],0.78 µg/mL
